{"source": "patent US5232917A", "about": "“Methods, compositions, and compounds for allosteric modulation of the GABA receptor by members of the androstane and pregnane series” (priority 1991, dated 1993)", "key": {"[1]": {"assay": "Rotorod test", "settings": "mouse, in vivo, ip", "experimental": "(§2) Adult male CFI mice (20-30g) were used in these studies. […] Ten to twelve mice were used per dose of test drug. […] Sedative potential was determined by a rotorod test where the number of mice staying on a rotating (6 rpm) rod for ≥1 min. in each of three trials was determined."}, "[2]": {"test_system": "sedative potential (rotorod)", "assay": "Rotorod test", "settings": "rotorod ED50 vs (+)bicuculline ED50", "experimental": "as §2"}, "[3]": {"test_system": "locomotor activity", "assay": "Locomotor activity in habituated mice", "assay_type": "in vivo, mice (male N.I.H. Swiss-Webster)", "protocol": "For evaluation of a drug's effects on general activity, mice were first habituated to the open-field apparatus for 15 min. The following day, mice were pretreated with a test drug and placed in the center of the activity chambers. The total distance traveled was measured for 10 min.\n(§1) The vehicle control data were analyzed across test days using an 1-way analysis of variance (ANOVA). […] The dose-response curves were then analyzed using an 1-way ANOVA, followed by Dunnett's t-test for individual comparisons between doses and control. The open-field and habituated locomotor data were analyzed using ANOVA followed by Dunnett's t-test. […] All data is expressed as the mean±S.E.M."}, "[4]": {"test_system": "punished responding", "assay": "Vogel conflict paradigm (lick suppression)", "assay_type": "in vivo, mice (male N.I.H. Swiss-Webster)", "settings": "3α-OH-DHP 20 mg/kg", "from_the_text": "An Anxio-Monitor (Omnitech Electronics, Columbus, Ohio) was used for measuring lick suppression. The testing chamber consisted of a clear plexiglass box (29 cm×29 cm×23 cm) with a metal drinking tube located 2.5 cm from the floor and extending 2 cm into the box. The shock was applied through the drinking spout and was controlled by the Anxio-Monitor. […] The reinforcer was 0.1M sucrose.\nThe conflict test procedure described by Vogel et al. (1980) was employed. This procedure is a modification of the original lick suppression test first described by Vogel et al. (1971). After 24 hr. of water deprivation,mice were allowed to explore the test apparatus and drink without punishment for 10 min. or 100 licks. […] Mice were allowed unpunished access to the drinking tube for 20 licks, thereafter, every 10th lick was punished with 0.1 mA shock. The test duration was 5 min.\nas §1"}}}
{"compound": "C[C@]12CC[C@@H](O)C[C@@H]1CC[C@@H]1[C@@H]2CC[C@]2(C)[C@@H](C(=O)CO)CC[C@@H]12", "note": "[Example 5α-THDOC, 3α,21-dihydroxy-5α-pregnan-20-one]", "values": [{"measurement": "TD50", "setting": "[1]", "value": 22.9, "unit": "mg/kg"}]}
{"compound": "CC(=O)[C@H]1CC[C@H]2[C@@H]3CC[C@H]4C[C@H](O)CC[C@]4(C)[C@H]3CC[C@]12C", "note": "[Example 3α-OH-DHP, 3α-hydroxy-5α-pregnan-20-one]", "values": [{"measurement": "sedative liability at anticonvulsant doses", "setting": "[2]", "value": "low"}, {"measurement": "total distance traveled, acclimated mice", "setting": "[3]; 3α-OH-DHP 20 mg/kg, controls 2061.2±157.7 cm, p<0.01", "value": "5694.7±608.4", "unit": "cm"}, {"measurement": "effect on locomotor activity", "setting": "[3]; acclimated mice", "value": "significant increase in locomotor activity"}, {"measurement": "increase in number of shocks received vs controls", "setting": "[4]; 5 min session, p=0.01, FIG. 14", "value": 235.6, "unit": "%"}, {"measurement": "number of shocks received", "setting": "[4]; controls […]", "value": "13.9±2.1"}]}
